Reference: patent US8426438B2, “Heterocyclic-fused pyrazolo[4,3-c]pyridin-3-one M1 receptor positive allosteric modulators” (Merck Sharp & Dohme Corp., priority 2009, dated 2013)

Target: T1, acetylcholine muscarinic M1 receptor (CHOnfat/hM1 cells) (Homo sapiens, UniProt P11229)
T1 construct: expressed in transfected cells; host or cells: CHOnfat cells (CHO, Geneticin selection)
T1 sequence (P11229 1-460): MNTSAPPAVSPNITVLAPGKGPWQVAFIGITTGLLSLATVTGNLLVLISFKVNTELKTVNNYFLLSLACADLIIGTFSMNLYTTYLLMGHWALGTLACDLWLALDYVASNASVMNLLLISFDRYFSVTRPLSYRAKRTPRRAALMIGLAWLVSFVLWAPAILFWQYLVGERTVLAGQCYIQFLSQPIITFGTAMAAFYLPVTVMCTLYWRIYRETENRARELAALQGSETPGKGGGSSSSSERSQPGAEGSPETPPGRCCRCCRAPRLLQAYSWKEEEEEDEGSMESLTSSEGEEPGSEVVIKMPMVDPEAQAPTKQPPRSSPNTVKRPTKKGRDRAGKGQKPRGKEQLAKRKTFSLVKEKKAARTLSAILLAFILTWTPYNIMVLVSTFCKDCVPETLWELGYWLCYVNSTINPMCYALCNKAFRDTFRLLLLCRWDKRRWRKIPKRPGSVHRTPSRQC
Assay: muscarinic FLIPR intracellular calcium assay for M1 positive allosteric modulator activity (acetylcholine EC20)
Format: cell-based
Settings: 4 min preincubation, then EC20 acetylcholine (3 nM final), read-out: IP Value (inflection point)
Description: The assay studies the effect of one or several concentrations of test compounds on basal or acetylcholine-stimulated Ca^2+ levels using FLIPR.
Compounds are prepared and subjected to a preincubation period of 4 min. Thereafter, a single EC20 concentration of acetylcholine is added to each well (3 nM final). The intracellular Ca^2+ level of each sample is measured and compared to an acetylcholine control to determine any modulatory activity.
CHOnfat/hM1, hM2, hM3 or hM4 cells are plated 24 hr before the assay at a density of 18,000 cells/well (100 up in a 384 well plate. CHOnfat/hM1 and CHOnfat/hM3 Growth Medium: 90% DMEM (Hi Glucose); 10% HI FBS; 2 mM L-glutamine; 0.1 mM NEAA; Pen-Strep; and 1 mg/ml Geneticin, are added. For M2Gqi5CHOnfat and M4Gqi5CHOnfat cells, an additional 600 μg/ml hygrornycin is added.
384 well plate, 120 μL addition plate; 96-well Whatman 2 ml Uniplate Incubator, 37° C., 5% CO2; Skatron EMBLA-384 Plate Washer; Multimek Pipetting System; Genesis Freedom 200 System; Mosquito System; Temo Nanolitre Pipetting System; and FLIPR^384 Fluorometric Imaging Plate Reader System are used.
Assay Buffer: Hanks Balanced Salt Solution, with 20 mM Hepes, 2.5 mM Probenecid (Sigma P-8761) first dissolved in 1 N NaOH, 1% Bovine Serum Albumin (Sigma A-9647). Dye Loading Buffer: Assay Buffer plus 1% Fetal Bovine Serum and Fluo-4AM/Pluronic Acid Mixture. 2 mM Fluo-4AM ester stock in DMSO (Molecular Probes F-14202) Concentration of 2 μM in buffer for a final concentration of 1 μM in Assay. 20% Pluronic Acid Solution stock, with concentration of 0.04% in Buffer, 0.02% in Assay.
65 μL of 2 mM Fluo-4AM are mixed with 130 μL of 20% Pluronic Acid. The resulting solution and 650 μL FBS is added to the assay buffer for a total volume of 65 mL. Positive Controls: 4-Br-A23187: 10 mM in DMSO; final concentration 10 μM. Acetylcholine: 10 mM in water, working stock at both 20 μM and 30 μM in assay buffer, final concentration of 10 μM. This is used to check the maximum stimulation of the CHOK1/hM1 cells. 20 μM (2×) acetylcholine is added in the preincubation part of the assay, and the 30 μM (3×) stock is added in the second part. (EC20) Acetylcholine: 10 mM in water, working stock of 9 nM (3×), and final concentration in assay is 3 nM. This is used after the preincubation with test compounds. Addition of the EC20 Acetylcholine to each well with a test compound will ascertain any modulator activity. 24 wells contain 3 nM Acetylcholine alone as a control.
Compounds are titrated in 96-well plates (columns 2-11), 100% DMSO, started at a concentration of 15 mM (150× stock concentration), and 3-fold serial dilutions using Genesis Freedom200 System. Four 96-well plates are combined into a 384-well plate using Mosquito Nanolitre Pipetting System by transferring 1 μl of serial diluted compounds to each well, and 1 mM acetylcholine (100× stock concentration) were added as a control. Using Temo, 49 μl assay buffer is added to each well of the 384-well plate right before assay.
In a 96-well Whatman 2 ml Uniplate, 9 nM Acetylcholine (3×) is pipetted into wells corresponding to the screening compounds, and into control wells. The 30 μM acetylcholine control (3×) is added into control wells, and the 3× agonist plate is transferred into a 384 well plate.
Cells are washed three times with 100 μL of buffer, leaving […] of buffer in each well. Using Multimek, 30 μL of Dye Loading Buffer is added into each well and incubated at 37° C., 5% CO2 for up to one hr.
After 60 min, the cells are washed three times with 100 μL of buffer, leaving 30 μL of buffer in each well. The cell plate, screening plate, and agonist addition plates are placed on the platform in the FLIPR and the door closed. A signal test to check background fluorescence and basal fluorescence signal is performed. Laser intensity is adjusted if necessary. […]

Question: How did the EC50 turn out when `O=c1c2cn(Cc3ccc(-n4cccn4)cc3)c3ccsc3c-2nn1-c1c(Cl)cncc1Cl` [Example 15, 2-(3,5-Dichloropyridin-4-yl)-5-{[4-(1H-pyrazol-1-yl)phenyl]methyl}-2,5-dihydro-3H-pyrazolo[3,4-d]thieno[3,2-b]pyridin-3-one] was run?
Answer: 65 nM

Question: With `Cc1ccccc1-n1nc2c3nccnc3n(Cc3ccc(-n4cccn4)cc3)cc-2c1=O` [Example 6, 2-(2-Methylphenyl)-5-{[4-(1H-pyrazol-1-yl)phenyl]methyl}-2,5-dihydro-3H-pyrazolo[3′,4′:4,5]-pyrido[2,3-b]pyrazin-3-one] as the compound, how does the EC50 read?
Answer: 759 nM

Question: How did the EC50 turn out when `O=c1c2cn(Cc3ccc(-n4cccn4)cc3)c3cccnc3c-2nn1-c1ccccc1F` [Example 1, 2-(2-Fluorophenyl)-5-{[4-(1H-pyrazol-1-yl)phenyl]methyl}-2,5-dihydro-3H-pyrazolo[4,3-c]-1,5-naphthyridin-3-one] was run?
Answer: 160 nM

Question: Which EC50 does the source give for `Cc1ccccc1-n1nc2c3sccc3n(Cc3ccc(-n4cccn4)cc3)cc-2c1=O` [Example 13, 2-(2-Methylphenyl)-5-{[4-(1H-pyrazol-1-yl)phenyl]methyl}-2,5-dihydro-3H-pyrazolo[3,4-d]thieno[3,2-b]pyridin-3-one] here?
Answer: 108 nM

Question: How did the EC50 turn out when `O=c1c2cn(Cc3ccc(-n4cccn4)cc3)c3c(c-2nn1-c1ccccc1F)C(O)CCC3` (racemic) [Example 11, (±)-2-(2-Fluorophenyl)-9-hydroxy-5-{[4-(1H-pyrazol-1-yl)phenyl]methyl}-2,5,6,7,8,9-hexahydro-3H-pyrazolo[4,3-c]quinolin-3-one] was run?
Answer: 1300 nM

Question: Which EC50 does the source give for `O=c1c2cn(Cc3ccc(-n4cccn4)cc3)c3cnccc3c-2nn1-c1ccccc1F` [Example 4, 2-(2-Fluorophenyl)-5-{[4-(1H-pyrazol-1-yl)phenyl]methyl}-2,5-dihydro-3H-pyrazolo[4,3-c]-1,7-naphthyridin-3-one] here?
Answer: 7670 nM

Question: With `O=c1c2cn(Cc3ccc(-n4cccn4)cc3)c3ncccc3c-2nn1-c1ccccc1F` [Example 2, 2-(2-Fluorophenyl)-5-{[4-(1H-pyrazol-1-yl)phenyl]methyl}-2,5-dihydro-3H-pyrazolo[4,3-c]-1,8-naphthyridin-3-one] as the compound, how does the EC50 read?
Answer: 318 nM

Question: How did the EC50 turn out when `O=c1c2cn(Cc3ccc(-n4cccn4)cc3)c3c(c-2nn1-c1ccccc1F)CCC3` [Example 8, 2-(2-Fluorophenyl)-5-{[4-(1H-pyrazol-1-yl)phenyl]methyl}-5,6,7,8-tetrahydrocyclopenta[b]pyrazolo[3,4-d]pyridine-3(2H)-one] was run?
Answer: 770 nM

Question: Which EC50 does the source give for `O=c1c2cn(Cc3ccc(-n4cccn4)cc3)c3c(c-2nn1-c1ccccc1F)CCCC3` [Example 9, 2-(2-Fluorophenyl)-5-{[4-(1H-pyrazol-1-yl)phenyl]methyl}-2,5,6,7,8,9-hexahydro-3H-pyrazolo[3,4-d]pyridine-3(2H)-one] here?
Answer: 360 nM

Question: For `O=c1c2cn(Cc3ccc(-n4cccn4)cc3)c3ccsc3c-2nn1-c1ccccc1F` [Example 12, 2-(2-Fluorophenyl)-5-{[4-(1H-pyrazol-1-yl)phenyl]methyl}-2,5-dihydro-3H-pyrazolo[4,3-d]thieno[3,2-b]pyridin-3-one], which EC50 is on record?
Answer: 20 nM
